In US6472348B1, “Pyridone derivatives and herbicides” (Kumiai Chemical Industry Co., Ltd., priority 1996, dated 2002):

These molecules were tested on green foxtail (Se) (assay: Test Example 7: crop plant selectivity by upland field soil treatment (corn), herbicidal effects). Conditions: dose 6.3 g ai/10a, 21st day after application.
Assay type: in vivo
Parameters: scale not given here
Method: (§1) (Test on Crop Plant Selectivity by Upland Field Soil Treatment)
(§2) In a plastic pot (surface area: 600 cm^2) filled with sand, corn (Ze), green foxtail (Se), pale smartweed (Po), slender amaranth (Am), common lambsquarters (Ch) and China jute (Ab) were sown and covered with soil. […] The plants were then cultured in a green house, and the evaluation of the herbicidal effects and phytotoxicity was conducted on the 21st day after the application in accordance with the standards as identified in Table 47.
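For Herbicidal effects Ec in this document: grade of growth control; 5 = at least 90%; 4 = 70 to 90%; 3 = 50 to 70%; 2 = 30 to 50%; 1 = 10 to 30%; 0 = under 10%.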
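For Herbicidal effects Mo in this document: grade of growth control; 5 = at least 90%; 4 = 70 to 90%; 3 = 50 to 70%; 2 = 30 to 50%; 1 = 10 to 30%; 0 = under 10%.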
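For Herbicidal effects Sc in this document: grade of growth control; 5 = at least 90%; 4 = 70 to 90%; 3 = 50 to 70%; 2 = 30 to 50%; 1 = 10 to 30%; 0 = under 10%.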

| Structure (SMILES) | Herbicidal effects Se |
| --- | --- |
| CCC(C)Oc1cc(-c2ccc(C(F)(F)F)n(C)c2=O)c(F)cc1Cl (centres unmarked) [1-167] | 5 |

The molecules below were run on China jute (Ab) in the same assay as above. Conditions: dose 6.3 g ai/10a, 21st day after application.
Assay type: in vivo
Parameters: scale not given here
Method: as §1, §2

| Structure (SMILES) | Herbicidal effects Ab |
| --- | --- |
| CCC(C)Oc1cc(-c2ccc(C(F)(F)F)n(C)c2=O)c(F)cc1Cl (centres unmarked) [1-167] | 5 |

What follows are molecules tested on pale smartweed (Po) in the same assay as above. Conditions: dose 6.3 g ai/10a, 21st day after application.
Assay type: in vivo
Parameters: scale not given here
Method: as §1, §2

| Structure (SMILES) | Herbicidal effects Po |
| --- | --- |
| CCC(C)Oc1cc(-c2ccc(C(F)(F)F)n(C)c2=O)c(F)cc1Cl (centres unmarked) [1-167] | 5 |

These molecules were tested on slender amaranth (Am) (assay: Test Example 4: crop plant selectivity by upland field soil treatment (cotton), herbicidal effects). Conditions: dose 6.3 g ai/10 a, evaluated 21st day after application.
Assay type: in vivo
Parameters: scale not given here
Summary of the method: (§3)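 Cotton and weeds (incl. China jute, pale smartweed, slender amaranth) sown in sand-filled pots and covered with soil, then soil-treated. Grown in greenhouse; herbicidal effect and cotton phytotoxicity scored on day 21 after application against a rating standard.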

| Structure (SMILES) | Herbicidal effects Am |
| --- | --- |
| CCC(C)Oc1cc(-c2ccc(C(F)(F)F)n(C)c2=O)c(F)cc1Cl (centres unmarked) [1-167] | 5 |

The molecules below were run on common lambsquarters (Ch) in the same assay as above. Conditions: dose 6.3 g ai/10 a, evaluated 21st day after application.
Assay type: in vivo
Parameters: scale not given here
Summary of the method: as §3

| Structure (SMILES) | Herbicidal effects Ch |
| --- | --- |
| CCC(C)Oc1cc(-c2ccc(C(F)(F)F)n(C)c2=O)c(F)cc1Cl (centres unmarked) [1-167] | 5 |

The molecules below were run on green foxtail (Se) in the same assay as above. Conditions: dose 6.3 g ai/10 a, evaluated 21st day after application.
Assay type: in vivo
Parameters: scale not given here
Summary of the method: as §3

| Structure (SMILES) | Herbicidal effects Se |
| --- | --- |
| CCC(C)Oc1cc(-c2ccc(C(F)(F)F)n(C)c2=O)c(F)cc1Cl (centres unmarked) [1-167] | 5 |

The molecules below were run on China jute (Ab) in the same assay as above. Conditions: dose 6.3 g ai/10 a, evaluated 21st day after application.
Assay type: in vivo
Parameters: scale not given here
Summary of the method: as §3

| Structure (SMILES) | Herbicidal effects Ab |
| --- | --- |
| CCC(C)Oc1cc(-c2ccc(C(F)(F)F)n(C)c2=O)c(F)cc1Cl (centres unmarked) [1-167] | 5 |

The molecules below were run on pale smartweed (Po) in the same assay as above. Conditions: dose 6.3 g ai/10 a, evaluated 21st day after application.
Assay type: in vivo
Parameters: scale not given here
Summary of the method: as §3

| Structure (SMILES) | Herbicidal effects Po |
| --- | --- |
| CCC(C)Oc1cc(-c2ccc(C(F)(F)F)n(C)c2=O)c(F)cc1Cl (centres unmarked) [1-167] | 5 |

What follows are molecules tested on barnyardgrass (Ec) (assay: Test Example 1: herbicidal effects by paddy field soil treatment). Conditions: 100 g of the active ingredient per 10 ares, 21st day after the application, index 0-5 of Table 47.
Assay type: in vivo
Summary of the method: (§4)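 Flooded paddy-soil pots (3 cm water) sown after puddling/leveling; treatment 100 g a.i./10 ares; greenhouse culture; herbicidal effect rated visually on a scoring scale at 21 d post-application.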

| Structure (SMILES) | Herbicidal effects Ec |
| --- | --- |
| CCC(C)Oc1cc(-c2ccc(C(F)(F)F)n(C)c2=O)c(F)cc1Cl (centres unmarked) [1-167] | 5 |

Each molecule was assayed on bulrush (Sc) in the same assay as above. Conditions: 100 g of the active ingredient per 10 ares, 21st day after the application, index 0-5 of Table 47.
Assay type: in vivo
Summary of the method: as §4

| Structure (SMILES) | Herbicidal effects Sc |
| --- | --- |
| CCC(C)Oc1cc(-c2ccc(C(F)(F)F)n(C)c2=O)c(F)cc1Cl (centres unmarked) [1-167] | 5 |

Each molecule was assayed on monochoria (Mo) in the same assay as above. Conditions: 100 g of the active ingredient per 10 ares, 21st day after the application, index 0-5 of Table 47.
Assay type: in vivo
Summary of the method: as §4

| Structure (SMILES) | Herbicidal effects Mo |
| --- | --- |
| CCC(C)Oc1cc(-c2ccc(C(F)(F)F)n(C)c2=O)c(F)cc1Cl (centres unmarked) [1-167] | 5 |

What follows are molecules tested on cotton (Go) (assay: Test Example 4: crop plant selectivity by upland field soil treatment (cotton), phytotoxicity). Conditions: dose 6.3 g ai/10 a, evaluated 21st day after application.
Assay type: in vivo
Parameters: scale not given here
Summary of the method: as §3

| Structure (SMILES) | Phytotoxicity Go |
| --- | --- |
| CCC(C)Oc1cc(-c2ccc(C(F)(F)F)n(C)c2=O)c(F)cc1Cl (centres unmarked) [1-167] | 1 |

The molecules below were run on barnyardgrass (Ec) (assay: Test Example 2: herbicidal effects by upland field soil treatment). Conditions: 100 g of the active ingredient per 10 ares, 21st day after the application, index 0-5 of Table 47.
Assay type: in vivo
From the text: (§5) (Test on Herbicidal Effects by Upland Field Soil Treatment)

| Structure (SMILES) | Herbicidal effects Ec |
| --- | --- |
| CCC(C)Oc1cc(-c2ccc(C(F)(F)F)n(C)c2=O)c(F)cc1Cl (centres unmarked) [1-167] | 5 |

What follows are molecules tested on Digitaria ciliaris (Di) in the same assay as above. Conditions: 100 g of the active ingredient per 10 ares, 21st day after the application, index 0-5 of Table 47.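 Also: grade of growth control; 5 = at least 90%; 4 = 70 to 90%; 3 = 50 to 70%; 2 = 30 to 50%; 1 = 10 to 30%; 0 = under 10%.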
Assay type: in vivo
From the text: as §5

| Structure (SMILES) | Herbicidal effects Di |
| --- | --- |
| CCC(C)Oc1cc(-c2ccc(C(F)(F)F)n(C)c2=O)c(F)cc1Cl (centres unmarked) [1-167] | 5 |

What follows are molecules tested on slender amaranth (Am) in the same assay as above. Conditions: 100 g of the active ingredient per 10 ares, 21st day after the application, index 0-5 of Table 47.
Assay type: in vivo
From the text: as §5

| Structure (SMILES) | Herbicidal effects Am |
| --- | --- |
| CCC(C)Oc1cc(-c2ccc(C(F)(F)F)n(C)c2=O)c(F)cc1Cl (centres unmarked) [1-167] | 5 |

Each molecule was assayed on common lambsquarters (Ch) in the same assay as above. Conditions: 100 g of the active ingredient per 10 ares, 21st day after the application, index 0-5 of Table 47.
Assay type: in vivo
From the text: as §5

| Structure (SMILES) | Herbicidal effects Ch |
| --- | --- |
| CCC(C)Oc1cc(-c2ccc(C(F)(F)F)n(C)c2=O)c(F)cc1Cl (centres unmarked) [1-167] | 5 |

Each molecule was assayed on rice flatsedge (Ci) in the same assay as above. Conditions: 100 g of the active ingredient per 10 ares, 21st day after the application, index 0-5 of Table 47.
Assay type: in vivo
From the text: as §5

| Structure (SMILES) | Herbicidal effects Ci |
| --- | --- |
| CCC(C)Oc1cc(-c2ccc(C(F)(F)F)n(C)c2=O)c(F)cc1Cl (centres unmarked) [1-167] | 5 |

These molecules were tested on pale smartweed (Po) in the same assay as above. Conditions: 100 g of the active ingredient per 10 ares, 21st day after the application, index 0-5 of Table 47.
Assay type: in vivo
From the text: as §5

| Structure (SMILES) | Herbicidal effects Po |
| --- | --- |
| CCC(C)Oc1cc(-c2ccc(C(F)(F)F)n(C)c2=O)c(F)cc1Cl (centres unmarked) [1-167] | 5 |

The molecules below were run on corn (Ze) (assay: Test Example 7: crop plant selectivity by upland field soil treatment (corn), phytotoxicity). Conditions: dose 6.3 g ai/10a, 21st day after application.
Assay type: in vivo
Parameters: scale not given here
Method: as §1, §2

| Structure (SMILES) | Phytotoxicity Ze |
| --- | --- |
| CCC(C)Oc1cc(-c2ccc(C(F)(F)F)n(C)c2=O)c(F)cc1Cl (centres unmarked) [1-167] | 0 |

Each molecule was assayed on wheat (Tr) (assay: Test Example 5: crop plant selectivity by upland field soil treatment (wheat), phytotoxicity). Conditions: dose 6.3 g ai/10a, 21st day after application.
Assay type: in vivo
Parameters: scale not given here
Method: as §1
In a plastic pot (surface area: 600 cm^2) filled with sand, wheat (Tr), Diaitaria ciliaris (Di), green foxtail (Se), pale smartweed (Po), slender amaranth (Am), common lambsquarters (Ch) and China jute (Ab) were sown and covered with soil. […] The plants were then cultured in a green house, and the evaluation of the herbicidal effects and phytotoxicity was conducted on the 21st day after the application in accordance with the standards as identified in Table 47. Symbol—represents “not tested”.

| Structure (SMILES) | Phytotoxicity Tr |
| --- | --- |
| CCC(C)Oc1cc(-c2ccc(C(F)(F)F)n(C)c2=O)c(F)cc1Cl (centres unmarked) [1-167] | 1 |
